Legend:
Assay in all cases: Bliss excess, mean over the matrix (fraction); higher = more synergy
[1] = test system: CAL-62 (Thyroid Gland Carcinoma)
In short: (§1)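 Bliss excess equals the observed combination effect minus the expected value EA + EB − EA·EB, where EA and EB are the effects of each agent alone. Combination Emax is the second-highest inhibition within the matrix. Inhibition was scaled from CellTiter-Glo 2.0 luminescence, with 0 set by vehicle wells and 1 by blank wells, after 72 hours of two-drug dosing of cells plated in 1536-well plates.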

GB-1 (Glioblastoma) = test system: GB-1 (Glioblastoma)
In short: as §1

[2] = test system: HCT-15 (Colorectal Carcinoma)
In short: as §1

[3] = test system: HEC-1 (Endometrial Carcinoma)
In short: as §1

[4] = test system: HSC-39 (Gastric Carcinoma)
In short: as §1

IST-MES1 (Mesothelioma) = test system: IST-MES1 (Mesothelioma)
In short: as §1

[5] = test system: KE-37 (T-Lymphoblastic Leukemia)
In short: as §1

[6] = test system: L-1236 (Hodgkin's Lymphoma)
In short: as §1

[7] = test system: NCI-H2342 (Lung Adenocarcinoma)
In short: as §1

[8] = test system: NCI-H446 (Small Cell Lung Carcinoma)
In short: as §1

[9] = test system: OAW-42 (Ovarian Carcinoma)
In short: as §1

[10] = test system: OVMIU (Ovarian Carcinoma)
In short: as §1

[11] = test system: PSN1 (Pancreatic Carcinoma)
In short: as §1

[12] = test system: REH (B-Lymphoblastic Leukemia)
In short: as §1

[13] = test system: RERF-GC-1B (Gastric Carcinoma)
In short: as §1

[14] = test system: RERF-LC-Sq1 (Squamous Cell Lung Carcinoma)
In short: as §1

SF539 (Glioblastoma) = test system: SF539 (Glioblastoma)
In short: as §1

[15] = test system: SHP-77 (Small Cell Lung Carcinoma)
In short: as §1

[16] = test system: SK-PN-DW (Other Solid Carcinomas)
In short: as §1

WM278 (Melanoma) = test system: WM278 (Melanoma)
In short: as §1

SMILES | Bliss excess [1] | Bliss excess (GB-1 (Glioblastoma)) | Bliss excess [2] | Bliss excess [3] | Bliss excess [4] | Bliss excess (IST-MES1 (Mesothelioma)) | Bliss excess [5] | Bliss excess [6] | Bliss excess [7] | Bliss excess [8] | Bliss excess [9] | Bliss excess [10] | Bliss excess [11] | Bliss excess [12] | Bliss excess [13] | Bliss excess [14] | Bliss excess (SF539 (Glioblastoma)) | Bliss excess [15] | Bliss excess [16] | Bliss excess (WM278 (Melanoma))
COc1cc2ncnc(Nc3ccc(F)c(Cl)c3)c2cc1OCCCN1CCOCC1 [Gefitinib] + CC(C)n1c(=O)n(C)c2cnc3cc(F)c(-c4ccc(OCCCN5CCCCC5)nc4)cc3c21 [AZD1390] (first compound max 10 µM, 7x7, partner max 0.3 µM) | -0.0451 | -0.0815 | -0.0533 | -0.0442 | 0.0185 | -0.0524 | -0.0791 | -0.0467 | -0.052 | -0.0082 | -0.0384 | -0.0564 | -0.0338 | -0.0498 | -0.092 | -0.0938 | -0.0347 | -0.0471 | -0.0293 | -0.0728
CS(=O)(=O)CCNCc1ccc(-c2ccc3ncnc(Nc4ccc(OCc5cccc(F)c5)c(Cl)c4)c3c2)o1 [Lapatinib] + C[C@@H](Oc1cc(-c2cnn(C3CCNCC3)c2)cnc1N)c1c(Cl)ccc(F)c1Cl [Crizotinib] (first compound max 10 µM, 7x7, partner max 10 µM) | -0.0436 | -0.11 | -0.0205 | -0.021 | -0.0117 | -0.0937 | 0.0236 | 0.0239 | -0.0006 | -0.0344 | -0.0033 | -0.0097 | -0.0443 | -0.0347 | -0.0237 | -0.039 | -0.0621 | -0.0004 | -0.0722 | -0.0284
CC(=O)c1c(C)c2cnc(Nc3ccc(N4CCNCC4)cn3)nc2n(C2CCCC2)c1=O [Palbociclib] + CC1(C)CCC(CN2CCN(c3ccc(C(=O)NS(=O)(=O)c4ccc(NCC5CCOCC5)c([N+](=O)[O-])c4)c(Oc4cnc5[nH]ccc5c4)c3)CC2)=C(c2ccc(Cl)cc2)C1 [Venetoclax] (first compound max 10 µM, 7x7, partner max 1 µM) | -0.029 | -0.0448 | 0.0105 | -0.0489 | -0.0476 | -0.0203 | 0.0258 | 0.0003 | -0.0564 | 0.0219 | -0.0365 | -0.0402 | -0.0149 | -0.0446 | -0.048 | 0.0475 | -0.0164 | 0.0543 | -0.0063 | -0.0338
CC(=O)c1c(C)c2cnc(Nc3ccc(N4CCNCC4)cn3)nc2n(C2CCCC2)c1=O [Palbociclib] + Cc1c2c(nn1C)CSCc1cc(n(C)n1)CSc1cc(c3ccccc3c1)OCCCc1c(C(=O)O)n(C)c3c-2c(Cl)ccc13 [AZD5991] (first compound max 10 µM, 7x7, partner max 1 µM) | -0.0047 | -0.102 | 0.0011 | -0.0336 | -0.0383 | -0.0111 | 0.0783 | -0.0341 | -0.0063 | 0.0062 | 0.0143 | -0.0416 | -0.0111 | -0.0213 | -0.0116 | -0.0228 | -0.0637 | -0.0247 | -0.0194 | -0.0395
